Like-named read-outs stand apart in the source and are kept apart here.
What was measured:
[1] = system: German cockroaches (Blattella germanica); experiment: whole plant or invertebrate
Source text: 2 male imagoes of German cockroaches (Blattella germanica) were released in the polyethylene cup, which was then covered with a lid.

[2] = system: common house mosquito (Culex pipiens pallens); experiment: whole plant or invertebrate; format: in vivo; conditions: concentration of active ingredients of 3.5 ppm in ion exchange water, final-instar larvae, after 24 hours
[3] = system: gambiae sensu stricto (Anopheles gambiae); experiment: whole plant or invertebrate; format: in vivo; conditions: 48 h, 167 ppm in acetone, 0.3 μl topically applied to chest back plate of females, 2 days after the topical application
Experimental: 10 mg of each of the compounds (1a-1), (1a-2), (1a-4), (1a-5), (1a-6), (1a-7), (1a-19), (1a-20), (1a-22), (1a-23), (1a-32), (1a-38), (1a-39), (1a-77), (1b-1), and (1b-2) of the present invention was dissolved in 3 ml of acetone. Test solutions were prepared by diluting each of the above solutions 20-fold with acetone (concentration of active ingredients of 167 ppm). […] The test was performed on 10 imagos per group, after the topical application, the imagos were transferred to a cup, and 5 percent sugar water was given.

[4] = system: German cockroaches (Blattella germanica); conditions: 500 ppm, 0.7 ml on filter paper, sucrose bait; male imagoes; after 24 hours
[5] = system: two-spotted spider mite (Tetranychus urticae); experiment: Test Example 6: kidney bean spray, two-spotted spider mite controlling value; format: in vivo; conditions: 500 ppm sprayed on kidney beans; female imagoes; 25° C.; 7 days after the treatment
Source text: 10 female imagoes of two-spotted spider mite (Tetranychus urticae) were released on kidney beans immediately after the primary leaf development. The next day, the test solution was sprayed at an amount in which the test solution dripped, using a spray gun. […] Controlling value (%)=(1−the number of surviving female imagoes in a treatment section/the number of surviving female imagoes in a non-treatment section)×100

[6] = system: diamondback moths (Plutella xylostella); conditions: 500 ppm test solution, 20 ml scattered on cabbage; second-instar larvae; 25° C.; after 5 days
Experimental: 20 ml of the above-described test solution was scattered on cabbages (Brassicae oleracea) in a third- or fourth-leaf stage. After air-drying the test solution, the overground portion was cut, collected, and accommodated in a polyethylene cup (capacity of 100 ml) together with 5 second-instar larvae of diamondback moths (Plutella xylostella), followed by storing at 25° C.

[7] = system: common houseflies (Musca domestica); conditions: 500 ppm, 0.7 ml on filter paper, sucrose bait; female imagoes; after 24 hours
Source text: 10 female imagoes of common houseflies (Musca domestica) were released in the polyethylene cup, which was then covered with a lid.

`COc1ccccc1COc1ncc(SC)s1` [Compound 1a-1, 2-(2-methoxybenzyloxy)-5-methylthiothiazole] was tested, and the mortality at 500 ppm ([1]; Blattella germanica, 144 h) was 100%, the mortality at 3.5 ppm [2] was ≥ 90% and the mortality at 167 ppm [3] was ≥ 90%.

With `CSc1cnc(OCc2ccccc2C)s1` [Compound 1a-2] the Mortality [4] was 100%.

In the case of `COc1ccccc1COc1nc(C)c(SC)s1` [Compound 1a-6], the Controlling value [5] is reported as ≥ 90%.

With `CSc1cnc(OCc2cccnc2)s1` [Compound 1a-9] the Mortality [6] was ≥ 80%.

In the case of `CSc1cnc(OCc2c(C)cccc2F)s1` [Compound 1a-16], the Mortality [4] is reported as 100%.

`CSc1cnc(OCc2cc(F)ccc2C)s1` [Compound 1a-19] gave a Mortality ([1]; 500 ppm, 0.7 ml on filter paper, sucrose bait, male imagoes, after 6 days) of 100%.

`CSc1cnc(OCc2cscc2C)s1` [Compound 1a-20] showed a Mortality [4] of 100%.

Work on `COc1ccc(F)cc1COc1ncc(SC)s1` [Compound 1a-23] yielded a Mortality [7] of 100%.

Work on `COc1ccc(OC)c(COc2ncc(SC)s2)c1` [Compound 1a-24] yielded a Mortality [7] of 100%.

For `CSc1cnc(OCc2ccoc2)s1` [Compound 1a-75], the Mortality [7] was 100%.

In the case of `CCSc1cnc(OCc2ccccc2C)s1` [Compound 1a-201, 2-(2-methylbenzyloxy)-5-ethylthiothiazole], the mortality at 3.5 ppm [2] is reported as ≥ 90%.

In the case of `COc1ccccc1COc1ncc([S+](C)[O-])s1` (centres unmarked) [Compound 1b-1, 2-(2-methoxybenzyloxy)-5-methylsulfinylthiazole], the mortality at 167 ppm [3] is reported as ≥ 90%.

— US9730449B2, “Thiazole compound and its use in pest control” (Sumitomo Chemical Company, Limited, priority 2014, dated 2017)
